{
  "source": "paper PMC6253886",
  "about": "“Prodrugs of Thyrotropin-Releasing Hormone and Related Peptides as Central Nervous System Agents” (Molecules, 2009)",
  "origin": "cited, not measured here",
  "key": {"[1]": {"settings": "IAMC", "source_text": "We utilized again the robust ... || (+ 2 further places)"}, "[2]": {"system": "mice", "settings": "for Analeptic Effect: % Decrease in Sleeping Time / Sleeping time (min): 10 µmol/kg i.v.; for Analeptic Effect: % Decrease in Sleeping Time: percent decrease vs saline vehicle counted as 100%; for % Decrease in Sleeping Time / Sleeping time (min): pentobarbital 60 mg/kg i.p. 10 min later; for % Decrease in Sleeping Time: percent of vehicle sleeping time (54.9 ±3.8 min); for Sleeping time (min): saline vehicle 80±2 min", "protocol": "Table 1 Barbiturate-induced sleeping times in mice after the administration of [Leu^2]TRH and its produgs having various spacers (S). Sleeping time decrease is expressed as percent of sleeping time for vehicle administration only (54.9 ±3.8 min). […] Values are expressed as percent decrease compared to those of saline vehicle that was counted as 100%. *Statistically significant difference from saline control (ANOVA followed by Dunnett’s, P < 0.05, n=6–16). Repri | column: Analeptic Effect:% Decrease in Sleeping Time || (+ 5 further places)"}, "[3]": {"system": "mice", "settings": "3 µmol/kg i.v., percent decrease vs saline vehicle counted as 100%, n=6–16", "source_text": "Table 4 Comparison of analeptic (equimolar dose of 10 µmol/kg body weight, i.v.) and antidepressant (equimolar dose of 3 of µmol/kg body weight, i.v) effects of test compounds in mice. Values are expressed as percent decrease compared to those of saline vehicle that was counted as 100%. *Statistically significant difference from saline control (ANOVA followed by Dunnett’s, P < 0.05, n=6–16). Repri | column: Porsolt Swim Test:% Decrease in Immobility"}, "[4]": {"biological_target": "TRH receptor (Rattus norvegicus) (UniProt Q01717)", "sequence (Q01717 whole entry)": "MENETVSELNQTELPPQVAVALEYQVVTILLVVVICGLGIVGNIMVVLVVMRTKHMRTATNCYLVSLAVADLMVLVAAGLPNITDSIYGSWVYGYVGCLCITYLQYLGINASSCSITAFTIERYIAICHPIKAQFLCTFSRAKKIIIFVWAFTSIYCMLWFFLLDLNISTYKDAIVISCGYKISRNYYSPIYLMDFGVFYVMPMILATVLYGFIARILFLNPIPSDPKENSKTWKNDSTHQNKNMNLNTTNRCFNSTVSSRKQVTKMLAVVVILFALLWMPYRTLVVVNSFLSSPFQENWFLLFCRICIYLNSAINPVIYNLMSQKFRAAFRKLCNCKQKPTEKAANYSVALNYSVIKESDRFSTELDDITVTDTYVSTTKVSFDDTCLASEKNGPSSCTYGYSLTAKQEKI", "assay": "radioligand competition"}, "[5]": {"system": "TRH receptors", "settings": "review statement", "source_text": "(§1) Many pharmacological activities of this peptide are similar to those of TRH [54]; however, the beneficial effects after treatment with [Glu^2]TRH are reportedly more robust or prolonged. These advantages are probably due to the increased resistance of this peptide to enzymes principally responsible for the rapid degradation of TRH in vivo [40]."}, "[6]": {"system": "triiodothyronine (T3) levels", "settings": "review statement", "source_text": "as §1"}, "[7]": {"source_text": "A centrally selective natural analogue of TRH is [Leu^2]TRH (pGlu-Leu-Pro-NH2, Figure 1), in which the central His of TRH is replaced with Leu. […] Therefore, we selected this tripeptide for substantiating our brain-targeting prodrug approach. […] The amino- and carbox ...", "remark": "listed apart in the source"}, "[8]": {"protocol": "Studies in rodents and humans have shown that this tripeptide has a very short (6–10 min) half-life in plasma. The rapid degradation in this medium is mainly due to the action of pyroglutamyl aminopeptidases. Additionally, this highly hydrophilic molecule (logP = –2.46) also lacks its own active BBB transport system; thus, high doses of the peptide unavoidably manifesting a profound and undesired hormonal (endocrine) effect would be required for CNS application. Therefore, dissociation of endocrine and CNS actions of TRH is a crucial issue in designing TRH analogues a ... || A centrally selective natural analogue of TRH is [Leu^2]TRH (pGlu-Leu-Pro-NH2, Figure 1), in which the central His of TRH is replaced with Leu. […] Therefore, we selected this tripeptide for substantiating our brain-targeting prodrug approach. […] The amino- and carbox ...", "remark": "listed apart in the source"}, "[9]": {"settings": "rodents and humans", "protocol": "Studies in rodents and humans have shown that this tripeptide has a very short (6–10 min) half-life in plasma. The rapid degradation in this medium is mainly due to the action of pyroglutamyl aminopeptidases. Additionally, this highly hydrophilic molecule (logP = –2.46) also lacks its own active BBB transport system; thus, high doses of the peptide unavoidably manifesting a profound and undesired hormonal (endocrine) effect would be required for CNS application. Therefore, dissociation of endocrine and CNS actions of TRH is a crucial issue in designing TRH analogues a ..."}, "[10]": {"system": "receptor labeled by [3H][3-Me-His2]TRH", "settings": "[3H][3-Me-His2]TRH-labeled receptor, rat brain pellets", "source_text": "(§2) Replacement of [His^2] practically aboli ..."}, "[11]": {"settings": "mouse plasma", "source_text": "as §2"}, "[12]": {"settings": "k’IAM = (tR-t0)/t0, t0 = retention time of [Glu^2]TRH as dead-volume marker"}},
  "note": "Read-outs that look alike come from different tables or passages of the source. Marks after values point to notes of the source that are not given here. [ ]: non-standard residue; d: D form. The star is where a group is joined. O(cholesteryl) = CC(C)CCC[C@@H](C)[C@H]1CC[C@H]2[C@@H]3CC=C4C[C@@H](O*)CC[C@]4(C)[C@H]3CC[C@]12C; pGlu = O=C1CC[C@@H](C(=O)O)N1; Dht = not defined here",
  "data": [
    {"substance": "Dht-Glu(OH)-Pro-NH2 [neutral prodrug without the ester function on the side-chain of the central residue]", "values": [
      {"measurement": "improvement of affinity to membrane lipids compared to the ionic analogue", "setting": "[1]", "value": "three- to five-fold"},
      {"measurement": "k’IAM", "setting": "[1]; [Trig^1] analogue prodrugs", "value": 0.4}
    ]},
    {"substance": "Dht-Glu(OHex)-Pro-NH2", "values": [
      {"measurement": "k’IAM", "setting": "[1]; [Trig^1] analogue prodrugs", "value": 28.6},
      {"measurement": "Analeptic Effect: % Decrease in Sleeping Time", "setting": "[2]; n=6–16", "value": "18 ± 2", "unit": "%"},
      {"measurement": "Analeptic Effect: % Decrease in Sleeping Time", "setting": "[2]; n=6–16, listed as Dht-Glu(OHex)–Pro-NH2", "value": "18±2* %"},
      {"measurement": "Porsolt Swim Test: % Decrease in Immobility", "setting": "[3]", "value": "43±3* %"},
      {"measurement": "t1/2 of hydrolysis of the ester", "setting": "mouse", "value": 27, "unit": "min"}
    ]},
    {"substance": "Prodrug, S= Ala-Ala: [Leu^2]TRH brain-targeting prodrug: Dht attached through spacer Ala-Ala to Gln-Leu-Pro-Gly, carboxy-terminus esterified with cholesterol (Dht-AAQLPG-{O(cholesteryl)}; reading uncertain)", "values": [
      {"measurement": "% Decrease in Sleeping Time", "setting": "[2]; 15 µmol/kg i.v.", "value": "32 ± 4* %"}
    ]},
    {"substance": "Prodrug, S= Ala: [Leu^2]TRH brain-targeting prodrug: Dht attached through spacer Ala to Gln-Leu-Pro-Gly, carboxy-terminus esterified with cholesterol (Dht-AQLPG-{O(cholesteryl)}; reading uncertain)", "values": [
      {"measurement": "% Decrease in Sleeping Time", "setting": "[2]; 15 µmol/kg i.v.", "value": "30 ± 3* %"}
    ]},
    {"substance": "Prodrug, S= Pro-Ala: [Leu^2]TRH brain-targeting prodrug: Dht attached through spacer Pro-Ala to Gln-Leu-Pro-Gly, carboxy-terminus esterified with cholesterol (Dht-PAQLPG-{O(cholesteryl)}; reading uncertain)", "values": [
      {"measurement": "% Decrease in Sleeping Time", "setting": "[2]; 15 µmol/kg i.v.", "value": "56 ± 4** %"}
    ]},
    {"substance": "Prodrug, S= Pro-Pro: [Leu^2]TRH brain-targeting prodrug: Dht attached through spacer Pro-Pro to Gln-Leu-Pro-Gly, carboxy-terminus esterified with cholesterol (Dht-PPQLPG-{O(cholesteryl)}; reading uncertain)", "values": [
      {"measurement": "% Decrease in Sleeping Time", "setting": "[2]; 15 µmol/kg i.v.", "value": "55 ± 7** %"}
    ]},
    {"substance": "Prodrug, S= Pro: [Leu^2]TRH brain-targeting prodrug: Dht attached through spacer Pro to Gln-Leu-Pro-Gly, carboxy-terminus esterified with cholesterol (Dht-PQLPG-{O(cholesteryl)}; reading uncertain)", "values": [
      {"measurement": "% Decrease in Sleeping Time", "setting": "[2]; 15 µmol/kg i.v.", "value": "47 ± 6** %"}
    ]},
    {"substance": "TRH (from UniProt P01150)", "values": [
      {"measurement": "Ki", "setting": "[4]", "value": 42, "unit": "nM"}
    ]},
    {"substance": "Trig-Glu(OHex)-Pro-NH2 [hexyl ester of the designed [Trig^1] analogue of [Glu^2]TRH]", "values": [
      {"measurement": "Analeptic Effect: % Decrease in Sleeping Time", "setting": "[2]; n=6–16", "value": "1±3", "unit": "%"},
      {"measurement": "pharmacological (analeptic) response, in words", "setting": "[2]; i.v., ionic compound without reduction of Trig to Dht", "value": "no pharmacological response was observed"},
      {"measurement": "Porsolt Swim Test: % Decrease in Immobility", "setting": "[3]", "value": "2±1", "unit": "%"}
    ]},
    {"substance": "[pGlu]-Glu-Pro-NH2 [[Glu^2]TRH, TRH-like endogenous tripeptide, reference compound]", "values": [
      {"measurement": "k’IAM", "setting": "[1]; [12]", "value": 0},
      {"measurement": "Sleeping time (min)", "setting": "[2]", "value": "65±3* min"},
      {"measurement": "binding to TRH receptors, in words", "setting": "[5]", "value": "practically does not bind to TRH receptors"},
      {"measurement": "effect on triiodothyronine (T3) levels, in words", "setting": "[6]", "value": "does not elevate triiodothyronine (T3) levels"}
    ]},
    {"substance": "[pGlu]-Leu-Pro-NH2 [[Leu^2]TRH, reference compound]", "values": [
      {"measurement": "% Decrease in Sleeping Time", "setting": "[2]; 15 µmol/kg i.v.", "value": "17 ± 7", "unit": "%"},
      {"measurement": "increase in typical TRH-associated analeptic effect compared to TRH", "setting": "[7]", "value": "approximately 2.5 fold"},
      {"measurement": "logP", "setting": "[8]", "value": "–1.67"}
    ]},
    {"substance": "pGlu-Glu(OHex)-Pro-NH2 [R=Hex]", "values": [
      {"measurement": "k’IAM", "setting": "[1]; [12]", "value": 16.0},
      {"measurement": "Sleeping time (min)", "setting": "[2]", "value": "50±2** min"},
      {"measurement": "Analeptic Effect: % Decrease in Sleeping Time", "setting": "[2]; n=6–16", "value": "37±3* %"},
      {"measurement": "ED50 (analeptic effect, dose-response)", "setting": "[2]; i.v.", "value": "around 2 µmol/kg body weight"},
      {"measurement": "Porsolt Swim Test: % Decrease in Immobility", "setting": "[3]", "value": "44±2* %"},
      {"measurement": "t1/2", "setting": "mouse", "value": "~22", "unit": "min"}
    ]},
    {"substance": "pGlu-His-Pro-NH2 [TRH, thyrotropin-releasing hormone, native tripeptide]", "values": [
      {"measurement": "k’IAM", "setting": "[1]; TRH, pyridinium analogues and their prodrugs", "value": 0.51},
      {"measurement": "duration of the analeptic action, in words", "setting": "[2]; 15 µmol/kg i.v., pentobarbital 60 mg/kg i.p. given 60 min post drug vs 10 min, Figure 6", "value": "loss of over half of CNS-activity"},
      {"measurement": "half-life in plasma", "setting": "[9]", "value": "6 to 10", "unit": "min"},
      {"measurement": "binding affinity", "setting": "[10]", "value": 42, "unit": "nM"},
      {"measurement": "half-life", "setting": "[11]", "value": 11, "unit": "min"},
      {"measurement": "half-life", "setting": "mouse brain homogenate (20%, w/v)", "value": 16, "unit": "min"},
      {"measurement": "logP", "setting": "[8]; logarithm of the n-octanol/water partition coefficient, review, no reference given for the value", "value": "–2.46"}
    ]}
  ]
}
